Reference: ChEMBL document CHEMBL3507680, “University of Dundee, Gates Library screen for HepG2 cell viability”

Experiment: Human HepG2 cell viability assay in 384 well format
Format: toxicity, cell-based
Set-up: dose 125 nL, time 70.5 hour; cytotoxicity at 70.5 h: concentration not given beside the values
Conditions: HepG2 cells, read-out: Inhibition

CCN(C(=O)CCc1ccccc1)C1CC(=O)NC1=O (stereo not drawn)
cytotoxicity at 70.5 h: 0.716%

CC(NCc1ccc(OCc2nccn2C)cc1)c1cccnc1 (stereo not drawn)
cytotoxicity at 70.5 h: -9.04%

COCCNC(=O)Nc1ccc(-c2nc(C(C)C)no2)cc1
cytotoxicity at 70.5 h: -6.61%

CC(C)OC(=O)CNC(=O)Nc1ccc(-c2nc(C(C)C)no2)cc1
cytotoxicity at 70.5 h: 2.82%

Cc1nnc2n1CCN(Cc1nc3c(F)cccc3[nH]1)C2
cytotoxicity at 70.5 h: -9.16%

CS(=O)(=O)N1CCCN(c2nccn3cnnc23)CC1
cytotoxicity at 70.5 h: -6.97%

CCc1cnc(NC(=O)NC2CCN(C)CC2)s1
cytotoxicity at 70.5 h: 10.3%

c1csc(N2CCCN(c3nccn4cnnc34)CC2)n1
cytotoxicity at 70.5 h: 3.4%

O=C(NCc1ccncc1)N1CC(Cc2ccccc2F)C1
cytotoxicity at 70.5 h: -5.27%

COc1cc(-n2cccc2)c(Cl)cc1C(N)=O
cytotoxicity at 70.5 h: -3.56%

CC(C)CS(=O)(=O)NC(=O)c1ccc2c(c1)ncn2C
cytotoxicity at 70.5 h: -4.45%

Cn1cnc2cc(C(=O)NS(=O)(=O)CC3CCCC3)ccc21
cytotoxicity at 70.5 h: 0.122%

CCn1cc(CNC2CCN(c3c(F)cccc3F)C2)cn1 (stereo not drawn)
cytotoxicity at 70.5 h: -0.658%

CC(CS(C)(=O)=O)N(C(=O)CCc1cccc(F)c1)C1CC1 (stereo not drawn)
cytotoxicity at 70.5 h: 12.6%

CN(C)C(=O)N1CCN(C(=O)c2ccn3ccnc3c2)CC1
cytotoxicity at 70.5 h: -3.58%

Cc1ccc(N(C)C2CCCN(C(=O)Nc3ccc(F)cc3F)C2)cc1 (stereo not drawn)
cytotoxicity at 70.5 h: -2.7%

COCCN1CCN(CCCc2nnnn2-c2ccccc2)CC1
cytotoxicity at 70.5 h: -14.2%

Cc1ccc(C(=O)Nc2ccc(N3CCCC3)cn2)cc1F
cytotoxicity at 70.5 h: 19.7%

c1cnc(N2CCN(Cc3nnnn3C3CC3)CC2)nc1
cytotoxicity at 70.5 h: -16.2%

CCCNC(=O)CN1CCOC(c2ccc(Br)cc2)C1 (stereo not drawn)
cytotoxicity at 70.5 h: -6.67%

CNC(=O)NC(=O)CCN1CCOC(c2ccc(Br)cc2)C1 (stereo not drawn)
cytotoxicity at 70.5 h: -7.41%

CN(C)S(=O)(=O)c1ccc(CN2CCC(C(N)=O)CC2)o1
cytotoxicity at 70.5 h: -2.97%

CC(=O)N1CCN(C(=O)NCCCc2cn[nH]c2C)CC1
cytotoxicity at 70.5 h: -14.4%

Cc1n[nH]cc1CNCC(c1cccc(F)c1)N(C)C (stereo not drawn)
cytotoxicity at 70.5 h: -1.43%

Cn1nccc1C(=O)N1C[C@@H]2CN(S(C)(=O)=O)CCO[C@@H]2C1
cytotoxicity at 70.5 h: -3.72%

O=C1CCCN1Cc1nnc2n1CCCN(C(=O)c1ccco1)C2
cytotoxicity at 70.5 h: 22.7%

CO[C@H]1CC[C@H]2[C@H]1OCCN2C(=O)c1nn(C)c2ccccc12
cytotoxicity at 70.5 h: -3.21%

CCN1CCNC(=O)C12CCN(C(=O)c1ccccn1)CC2
cytotoxicity at 70.5 h: 18.3%

Cc1ccc2c(n1)N(CC1CC1)CCN(Cc1cnn(C)c1)C2
cytotoxicity at 70.5 h: 30.4%

CCO[C@H]1CC[C@H]2[C@H]1OCCN2C(=O)CC1=CCCCC1
cytotoxicity at 70.5 h: 24%

Cc1ccc2c(n1)N(C)CCN(Cc1cnn(C)c1)C2
cytotoxicity at 70.5 h: -2.39%

COCCn1c2c(ccc1=O)CCN(C(=O)Cc1cccs1)CC2
cytotoxicity at 70.5 h: -5.4%

COc1cc(N2CCC3(CC2)CN(S(C)(=O)=O)c2ccccc23)ncn1
cytotoxicity at 70.5 h: -2.83%

COCCn1c2c(ccc1=O)CCN(C(=O)Cc1ccsc1)CC2
cytotoxicity at 70.5 h: 2.04%

O=C(C1CC(F)(F)C1)N1C[C@@H]2CN(Cc3ccoc3)CCO[C@@H]2C1
cytotoxicity at 70.5 h: -3.45%

CS(=O)(=O)N1CCO[C@@H]2CN(C(=O)C3CC(F)(F)C3)C[C@@H]2C1
cytotoxicity at 70.5 h: -3.63%

CN1[C@H](CN2CCCC2)C[C@@H]2CN(C(=O)c3cnccn3)CC[C@@H]21
cytotoxicity at 70.5 h: -4.55%

Cc1occc1C(=O)N1C[C@@H]2CCCO[C@@H]2[C@H](NS(C)(=O)=O)C1
cytotoxicity at 70.5 h: -1.97%

O=C(CC1CC1)N[C@@H]1CN(C(=O)c2ccsc2)C[C@@H]2CCCO[C@@H]21
cytotoxicity at 70.5 h: -1.55%

Cc1ccc(N2CCC3(CCN(Cc4csc(C)n4)C3=O)C2)nn1 (stereo not drawn)
cytotoxicity at 70.5 h: -3.25%

COc1cc(N2CCC3(CCN(Cc4cccnc4)C3=O)C2)ncn1 (stereo not drawn)
cytotoxicity at 70.5 h: -4.34%

Cn1nc(CNc2ncccn2)c2c1CN(c1cnccn1)CC2
cytotoxicity at 70.5 h: -8.13%

O=C(c1ccco1)N1CCO[C@@H]2CNC[C@@H]21
cytotoxicity at 70.5 h: -6.25%

Cn1cc(CN2C[C@@H]3CN(C(=O)c4cccn4C)CCO[C@@H]3C2)cn1
cytotoxicity at 70.5 h: -2.93%

CC(=O)N1CC[C@H]2N(C)CC[C@@]2(C(=O)Nc2cccnc2)CC1
cytotoxicity at 70.5 h: -8.43%

CCOCC1CN(C(=O)c2ccoc2)Cc2cnn(C)c21 (stereo not drawn)
cytotoxicity at 70.5 h: 13.6%

O=C(c1ccco1)N1Cc2cnn(CC3CC3)c2C(COCC2CC2)C1 (stereo not drawn)
cytotoxicity at 70.5 h: 15.4%

Cn1ncc2c1C(COCC1CC1)CN(C(=O)c1ccoc1)C2 (stereo not drawn)
cytotoxicity at 70.5 h: 14.1%

CCn1nnc2c1C(COCC(=O)N(C)C)CN(Cc1ccoc1)C2 (stereo not drawn)
cytotoxicity at 70.5 h: -0.882%

O=C(c1ccsc1)N1C[C@@H]2CCN(C(=O)c3cscn3)[C@@H]2C1
cytotoxicity at 70.5 h: -6.91%

Cn1cc(-c2cnc(-c3ccnn3C)nc2)cc1C(=O)N1CCCC1
cytotoxicity at 70.5 h: -4.76%

O=c1ccc2c(n1CCN1CCCC1)CCN(c1ncccn1)CC2
cytotoxicity at 70.5 h: -4.06%

CC(=O)N1CCO[C@@H]2CN(S(=O)(=O)c3ccc(F)cc3)CC[C@@H]2C1
cytotoxicity at 70.5 h: -6.92%

c1cnc(N2CCc3onc(CN4CCOCC4)c3C2)cn1
cytotoxicity at 70.5 h: -9.12%

COCC1COCCC12CCN(S(=O)(=O)c1ccccc1)CC2 (stereo not drawn)
cytotoxicity at 70.5 h: 0.595%

CC[C@H](C)Nc1nccc(-c2cnc3sc(C)cn3c2=O)n1
cytotoxicity at 70.5 h: -5.35%

NS(=O)(=O)NCc1cc(-c2ccc(C(F)(F)F)cc2)n[nH]1
cytotoxicity at 70.5 h: -5.31%

N#Cc1ccc(Nc2nc3c(s2)C(=O)CN(CC2CC2)C3)cc1
cytotoxicity at 70.5 h: -4.09%

CN(C)c1ncc(-c2ccc(NC(=O)[C@@H]3CCCCN3)cc2)cn1
cytotoxicity at 70.5 h: -0.758%

CN(C)CCN1CCN(C)c2nc(-c3ccccc3)ncc2C1=O
cytotoxicity at 70.5 h: -9.02%

c1cc(-c2c[nH]nc2C2CCCCC2)nc(N2CCCCCC2)n1
cytotoxicity at 70.5 h: 2.67%

CNC(=O)Cc1cc2nccc(-c3c(OC)cccc3OC)n2n1
cytotoxicity at 70.5 h: -7.19%

OC[C@H]1CCCN1c1nccc(-c2c[nH]nc2C2CCCCC2)n1
cytotoxicity at 70.5 h: 2.37%

Cc1cn2c(=O)c(-c3ccnc(N[C@@H]4CCOC4)n3)cnc2s1
cytotoxicity at 70.5 h: -3.69%

CC[C@H](C)[C@H](N)C(=O)Nc1nc(-c2cnc(N(C)C)nc2)cs1
cytotoxicity at 70.5 h: -0.629%

Cc1[nH]c2ccccc2c1-c1ccnc(NCCN2CCCCC2)n1
cytotoxicity at 70.5 h: -3.28%

CC(C)CC(=O)N1CC(=O)c2sc(NC3CCCCC3)nc2C1
cytotoxicity at 70.5 h: 1.17%

CN1CCN(c2nccc(-c3cncnc3C3CCCCC3)n2)CC1
cytotoxicity at 70.5 h: -5.17%

COc1cc(OC)cc(-c2cc(CN)nc3ccnn23)c1
cytotoxicity at 70.5 h: -4.26%

CN(C)C(=O)CO[C@H]1CN(Cc2ccoc2)[C@@H]2COC[C@H]12
cytotoxicity at 70.5 h: -5.51%

CN(C)C(=O)CO[C@H]1CN(Cc2ccc3c(c2)OCO3)[C@@H]2COC[C@H]12
cytotoxicity at 70.5 h: -4.69%

CN1CCO[C@@H]2CN(S(=O)(=O)c3ccccc3)C[C@@H]2C1
cytotoxicity at 70.5 h: 20.2%

O=C(C1CC(F)(F)C1)N1C[C@@H]2CN(CC3CCCC3)CCO[C@@H]2C1
cytotoxicity at 70.5 h: 22.1%

COc1ccc(C[C@H]2CN(Cc3ccoc3)CC[C@H]2OC)cc1
cytotoxicity at 70.5 h: -0.279%

CCN1CCN(C)C(=O)C12CCN(C(=O)Cc1ccccn1)CC2
cytotoxicity at 70.5 h: 0.951%

CO[C@@H]1CCN(Cc2ccoc2)[C@H]1Cc1ccccc1
cytotoxicity at 70.5 h: -5.28%

O=C(O)[C@]12CCCN(C3CCOC3)C[C@H]1CN(c1nncs1)C2 (stereo partly drawn)
cytotoxicity at 70.5 h: -7.95%

COc1cc(N2CCC3(CCCN(Cc4ccccn4)C3)C2)ncn1 (stereo not drawn)
cytotoxicity at 70.5 h: -5.46%

Cc1cnc(N2C[C@@H]3CN(C4CCOC4)CCC[C@]3(C(=O)O)C2)nc1 (stereo partly drawn)
cytotoxicity at 70.5 h: -7.9%

COc1cc(N2CCC3(CCN(Cc4csc(C)n4)C3)CC2)ncn1
cytotoxicity at 70.5 h: -5.2%

COc1cc(N2CCC3(CCN(Cc4csc(C)n4)C3=O)C2)ncn1 (stereo not drawn)
cytotoxicity at 70.5 h: -7.86%

Cc1cnc(C(=O)N2Cc3ncn(C)c3C(COCC(C)C)C2)cn1 (stereo not drawn)
cytotoxicity at 70.5 h: -4.87%

CCN1Cc2ccccc2CC2(CCN(CC(=O)O)CC2)C1=O
cytotoxicity at 70.5 h: 15.3%

CN1Cc2ccccc2CC2(CCN(CCO)CC2)C1=O
cytotoxicity at 70.5 h: 18%

Cc1ccc(CN2CC[C@@H]3OCCN(S(C)(=O)=O)[C@H]3CC2)s1
cytotoxicity at 70.5 h: -3.31%

CN(C)CCn1c2c(ccc1=O)CC(NC(=O)c1cnccn1)CC2 (stereo not drawn)
cytotoxicity at 70.5 h: -10.4%

Cc1ccc(N2CCC3(CN(CCO)CCC3(F)F)C2)nn1 (stereo not drawn)
cytotoxicity at 70.5 h: -6.24%

OCCN1CCC(F)(F)C2(CCN(c3cnccn3)C2)C1 (stereo not drawn)
cytotoxicity at 70.5 h: -5.87%

COCC1CN(C(=O)c2ccoc2)Cc2cnn(CC3CCOCC3)c21 (stereo not drawn)
cytotoxicity at 70.5 h: -9.06%

Cc1ccc(N2CCC3(CN(Cc4cccs4)CCC3(F)F)C2)nn1 (stereo not drawn)
cytotoxicity at 70.5 h: -7.32%

COCCN1CCN(S(=O)(=O)c2ccccc2)Cc2cccnc21
cytotoxicity at 70.5 h: -5.54%

CN1CCO[C@@H]2CN(S(=O)(=O)c3cccs3)CC[C@@H]2C1
cytotoxicity at 70.5 h: -9.31%

Cc1ccc(N2CC[C@H](OCC3CC3)[C@@H]2Cc2cccnc2)nn1
cytotoxicity at 70.5 h: 1.2%

c1cnc(N2CCO[C@@H]3CN(Cc4ccoc4)C[C@@H]3C2)nc1
cytotoxicity at 70.5 h: 4.32%

Cc1csc(NC(=O)[C@@H]2C[C@H]3[C@H](CCN3c3ncccn3)O2)n1
cytotoxicity at 70.5 h: 18.3%

Cc1ccoc1C(=O)N1CC[C@H]2[C@H](C[C@@H](CN3CCCC3)N2C)C1
cytotoxicity at 70.5 h: 4.09%

CN1CCC(N2CCC(C(=O)N(C)C)CC2)CC1
cytotoxicity at 70.5 h: -0.525%

CN(C)C(=O)C1CCN(C2CCN(CC3CC3)CC2)CC1
cytotoxicity at 70.5 h: -5.51%

Cn1nc(CN2CCCC2)c2c1CN(c1cnccn1)CC2
cytotoxicity at 70.5 h: -3.39%

O=C(O)CN1CCCC2(CCN2Cc2cccc(F)c2)C1 (stereo not drawn)
cytotoxicity at 70.5 h: -1.42%

CC(C)C(=O)N1CC[C@H]2N(C)CC[C@@]2(C(=O)Nc2cccnc2)CC1
cytotoxicity at 70.5 h: -10.9%

c1ccc(CN2CCC3(CC2)CCN(c2ccccn2)C3)nc1
cytotoxicity at 70.5 h: -10.3%

CCOCc1nn(CC2CC2)c2c1CN(Cc1cccs1)CC2
cytotoxicity at 70.5 h: -6.81%

CCn1nnc2c1C(COCCN(C)C)CN(Cc1ccco1)C2 (stereo not drawn)
cytotoxicity at 70.5 h: 11.5%

Cc1ccc(N2CCC3(CN(Cc4ccncc4)CCC3(F)F)C2)nn1 (stereo not drawn)
cytotoxicity at 70.5 h: -1.36%

CN(C)CCn1c2c(ccc1=O)CCN(Cc1cnn(C)c1)CC2
cytotoxicity at 70.5 h: 2.16%

CN(C)CCOCc1cncc2c1CCN(C1CCOC1)C2 (stereo not drawn)
cytotoxicity at 70.5 h: -4.13%

CC(C)OCc1nn(C)c2c1CN(Cc1cccs1)CC2
cytotoxicity at 70.5 h: -2.74%
